Laboratory results as given in BindingDB's records for doi:10.7270/Q2FF3QRT (University of Pittsburgh, 2006).

Target: T1, M-phase inducer phosphatase 2 (Homo sapiens, UniProt P30305)
T1 sequence (P30305 whole entry): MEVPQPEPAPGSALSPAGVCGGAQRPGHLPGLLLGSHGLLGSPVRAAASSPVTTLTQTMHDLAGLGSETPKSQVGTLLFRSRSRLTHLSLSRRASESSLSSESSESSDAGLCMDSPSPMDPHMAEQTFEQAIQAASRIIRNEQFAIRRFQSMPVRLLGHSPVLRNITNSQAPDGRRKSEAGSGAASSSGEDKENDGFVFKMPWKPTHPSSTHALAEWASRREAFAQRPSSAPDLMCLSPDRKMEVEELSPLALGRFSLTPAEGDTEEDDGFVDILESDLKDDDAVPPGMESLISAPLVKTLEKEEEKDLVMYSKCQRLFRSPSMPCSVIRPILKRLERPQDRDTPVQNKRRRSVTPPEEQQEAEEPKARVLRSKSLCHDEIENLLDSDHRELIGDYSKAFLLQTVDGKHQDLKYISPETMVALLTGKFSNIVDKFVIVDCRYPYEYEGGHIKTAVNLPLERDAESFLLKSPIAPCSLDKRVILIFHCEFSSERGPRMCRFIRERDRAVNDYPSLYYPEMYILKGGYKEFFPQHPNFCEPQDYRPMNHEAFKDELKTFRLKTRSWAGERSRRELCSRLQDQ
Experiment: Cdc25B phosphatase inhibitors, confirmation, selectivity assay, biochemical, catalytic domain, dose response (AID 443)

| SMILES | IC50 [µM] |
| --- | --- |
| CC(C)Cn1c(N)c(C(=O)COC(=O)c2cc(-c3ccco3)nc3ccccc23)c(=O)n(C)c1=O [2-(2-furanyl)-4-quinolinecarboxylic acid [2-[4-amino-1-methyl-3-(2-methylpropyl)-2,6-dioxo-5-pyrimidinyl]-2-oxoethyl] ester] | 13.1 |
| Cc1ccc2c(c1C)NC(C(=O)O)C1CC=CC21 (stereo not given) | 10.6 |
| COc1ccc(Cn2c(C)nc3c(c2=O)c2nc4ccccc4nc2n3Cc2ccco2)cc1 [MLS000079944] | 31.5 |
| CCn1nc(-c2ccccc2)nc2c(=O)n(C)c(=O)nc1-2 [1-Ethyl-6-methyl-3-phenyl-1H-pyrimido[5,4-e][1,2,4]triazine-5,7-dione] | 0.223 |
| CCCCC[C@H](O)C=C[C@H]1C=CC(=O)[C@@H]1C/C=C\CCCC(=O)O [(Z)-7-[(1R,5S)-2-oxidanylidene-5-[(E,3S)-3-oxidanyloct-1-enyl]cyclopent-3-en-1-yl]hept-5-enoic acid] | 43.1 |
